Patent US10179782B2, “Substituted sulfonamide compounds” (Genentech, Inc., priority 2016, dated 2019)

Molecular target: T1, human TRPA1 (Homo sapiens, UniProt O75762)
T1 construct: expressed in transfected cells; host or cells: CHO cells
Test: TRPA1 FLIPR Tetra calcium influx assay in CHO cells (block of cinnamaldehyde-induced calcium influx)
Type: cell-based
Settings: Table 2; CHO cells expressing TRPA1; agonist cinnamaldehyde 75 uM; 20 min compound incubation; Hill coefficient fixed to 1.5; read-out: hTRPA1 CHO Ca2+ AUC EVO (IC50)
Summary of the method: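 CHO cells expressing TRPA1 were loaded with calcium dye in HBSS/20 mM HEPES, pH 7.4, 0.02% BSA, then given compound for 20 min at room temperature before ~EC80 cinnamaldehyde (75 µM human, 45 µM rat). Block of calcium influx was read on FLIPR Tetra; IC50 fitted with Hill coefficient fixed at 1.5.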

T1 sequence (O75762 whole entry): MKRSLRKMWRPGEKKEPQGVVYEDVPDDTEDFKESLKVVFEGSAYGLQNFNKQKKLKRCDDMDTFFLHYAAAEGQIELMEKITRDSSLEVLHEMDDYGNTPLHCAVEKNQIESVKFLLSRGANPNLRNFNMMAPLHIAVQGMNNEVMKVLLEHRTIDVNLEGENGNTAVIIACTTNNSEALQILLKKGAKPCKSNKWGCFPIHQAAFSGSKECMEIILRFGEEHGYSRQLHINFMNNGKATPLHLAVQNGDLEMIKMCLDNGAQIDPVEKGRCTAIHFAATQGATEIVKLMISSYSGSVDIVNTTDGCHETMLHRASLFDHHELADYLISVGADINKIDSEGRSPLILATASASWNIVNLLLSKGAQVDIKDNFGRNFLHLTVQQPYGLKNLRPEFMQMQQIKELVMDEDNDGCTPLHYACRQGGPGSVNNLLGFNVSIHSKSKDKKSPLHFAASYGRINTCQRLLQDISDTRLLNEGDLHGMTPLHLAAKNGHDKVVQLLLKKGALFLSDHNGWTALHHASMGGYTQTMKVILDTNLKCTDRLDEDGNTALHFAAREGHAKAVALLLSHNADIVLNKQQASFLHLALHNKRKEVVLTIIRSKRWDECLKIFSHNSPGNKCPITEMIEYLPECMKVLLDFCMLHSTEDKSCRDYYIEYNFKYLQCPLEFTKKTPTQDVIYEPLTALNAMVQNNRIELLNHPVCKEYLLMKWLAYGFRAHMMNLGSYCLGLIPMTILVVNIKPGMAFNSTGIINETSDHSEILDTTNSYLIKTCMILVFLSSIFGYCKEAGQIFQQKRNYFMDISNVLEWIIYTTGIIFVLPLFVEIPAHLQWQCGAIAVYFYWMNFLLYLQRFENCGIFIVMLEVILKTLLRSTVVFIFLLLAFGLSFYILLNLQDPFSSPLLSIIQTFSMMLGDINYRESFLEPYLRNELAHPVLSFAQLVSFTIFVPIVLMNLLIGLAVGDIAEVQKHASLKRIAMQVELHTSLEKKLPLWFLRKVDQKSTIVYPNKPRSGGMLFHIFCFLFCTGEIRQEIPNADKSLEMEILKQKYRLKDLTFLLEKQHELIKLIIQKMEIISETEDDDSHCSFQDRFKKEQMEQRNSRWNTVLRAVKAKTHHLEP

SMILES | IC50 [nM]
C[C@H]1[C@H](F)C[C@@H](C(=O)NCc2cc(OCc3ccc(F)cn3)c(F)cn2)N1S(=O)(=O)c1ccc(F)cc1 [Example 47, (2S,4R,5S)-4-fluoro-N-((5-fluoro-4-((5-fluoropyridin-2-yl)methoxy)pyridin-2-yl)methyl)-1-(4-fluorophenylsulfonyl)-5-methylpyrrolidine-2-carboxamide] | 1900
C[C@H]1[C@H](F)C[C@@H](C(=O)NCc2cc(OCc3cncc(C(F)(F)F)c3)c(F)cn2)N1S(=O)(=O)c1ccc(F)cc1 [Example 48, (2S,4R,5S)-4-fluoro-N-((5-fluoro-4-((5-(trifluoromethyl)pyridin-3-yl)methoxy)pyridin-2-yl)methyl)-1-(4-fluorophenylsulfonyl)-5-methylpyrrolidine-2-carboxamide] | 105
C[C@H]1[C@H](F)C[C@@H](C(=O)NCc2cn([C@H]3CC[C@H](C(F)(F)F)CC3)nc2C(F)(F)F)N1S(=O)(=O)c1ccc(F)cc1 [Example 50, (2S,4R,5S)-4-fluoro-1-(4-fluorophenyl)sulfonyl-5-methyl-N-[[3-(trifluoromethyl)-1-[4-(trifluoromethyl)cyclohexyl]pyrazol-4-yl]methyl]pyrrolidine-2-carboxamide] | 50.5
C[C@H]1[C@H](F)C[C@@H](C(=O)NCc2cc([C@H]3CC[C@H](C(F)(F)F)CC3)c(F)cn2)N1S(=O)(=O)c1ccc(F)cc1 [Example 53, (2S,4R,5S)-4-fluoro-1-(4-fluorophenyl)sulfonyl-N-[[5-fluoro-4-[4-(trifluoromethyl)cyclohexyl]-2-pyridyl]methyl]-5-methyl-pyrrolidine-2-carboxamide] | 64.6
C[C@H]1[C@H](F)C[C@@H](C(=O)NCc2cc(-c3cnc(C(F)(F)F)s3)ncn2)N1S(=O)(=O)c1ccc(F)cc1 [Example 56, (2S,4R,5S)-4-fluoro-1-(4-fluorophenyl)sulfonyl-5-methyl-N-[[6-[2-(trifluoromethyl)thiazol-5-yl]pyrimidin-4-yl]methyl]pyrrolidine-2-carboxamide] | 66.9
O=C(NCc1cc(N2CCC(OC(F)(F)F)CC2)ncc1F)[C@@H]1C[C@@H](F)CN1S(=O)(=O)c1ccc(F)cc1 [Example 57, (2S,4R)-4-fluoro-1-(4-fluorophenyl)sulfonyl-N-[[5-fluoro-2-[4-(trifluoromethoxy)-1-piperidyl]-4-pyridyl]methyl]pyrrolidine-2-carboxamide] | 49.4
C[C@H]1CCC[C@@H](C(=O)NCc2cc(-c3cnc(C(F)(F)F)nc3)ncc2F)N1S(=O)(=O)c1ccc(F)cc1 [Example 58, (2S,6S)-1-(4-fluorophenyl)sulfonyl-N-[[5-fluoro-2-[2-(trifluoromethyl)pyrimidin-5-yl]-4-pyridyl]methyl]-6-methyl-piperidine-2-carboxamide] | 73.9
O=C(NCc1cc(-c2ccc(S(F)(F)(F)(F)F)cc2)ncc1F)[C@@H]1C[C@@H](F)CN1S(=O)(=O)c1ccc(F)cc1 [Example 59, (2S,4R)-4-fluoro-N-[[5-fluoro-2-[4-(pentafluoro-sulfanyl)phenyl]-4-pyridyl]methyl]-1-(4-fluorophenyl)sulfonyl-pyrrolidine-2-carboxamide] | 161
CC(C)Oc1nc(CNC(=O)[C@@H]2C[C@@H](F)CN2S(=O)(=O)c2ccc(F)cc2)cc(-c2cnc(C(F)(F)F)nc2)n1 [Example 60, (2S,4R)-4-fluoro-1-(4-fluorophenyl)sulfonyl-N-[[2-isopropoxy-6-[2-(trifluoromethyl)pyrimidin-5-yl]pyrimidin-4-yl]methyl]pyrrolidine-2-carboxamide] | 83.1
C[C@H]1[C@H](F)C[C@@H](C(=O)NCc2cn(-c3cnc(C(F)(F)F)nc3)nc2Cl)N1S(=O)(=O)c1ccc(F)cc1 [Example 62, (2S,4R,5S)-N-[[3-chloro-1-[2-(trifluoromethyl)pyrimidin-5-yl]pyrazol-4-yl]methyl]-4-fluoro-1-(4-fluorophenyl)sulfonyl-5-methyl-pyrrolidine-2-carboxamide] | 58.2
O=C(NCc1cc(-c2cnc(C(F)(F)F)nc2)ncn1)[C@@H]1[C@H]2C[C@H]2CN1S(=O)(=O)c1ccc(F)cc1 [Example 65, (1S,2S,5R)-3-(4-fluorophenyl)sulfonyl-N-[[6-[2-(trifluoromethyl)pyrimidin-5-yl]pyrimidin-4-yl]methyl]-3-azabicyclo[3.1.0]hexane-2-carboxamide] | 64.8
CCc1cc(CNC(=O)[C@@H]2C[C@@H](F)CN2S(=O)(=O)c2ccc(F)cc2)cc(-c2cnc(C(F)(F)F)nc2)n1 [Example 66, (2S,4R)-N-[[2-ethyl-6-[2-(trifluoromethyl)pyrimidin-5-yl]-4-pyridyl]methyl]-4-fluoro-1-(4-fluorophenyl)sulfonyl-pyrrolidine-2-carboxamide] | 76.9
O=C(NCc1cc(-c2cnc(C(F)(F)F)nc2)nc(C2CC2)c1)[C@@H]1C[C@@H](F)CN1S(=O)(=O)c1ccc(F)cc1 [Example 67, (2S,4R)-N-[[2-cyclopropyl-6-[2-(trifluoromethyl)pyrimidin-5-yl]-4-pyridyl]methyl]-4-fluoro-1-(4-fluorophenyl)sulfonyl-pyrrolidine-2-carboxamide] | 65.1
O=C(NCc1ccc(F)c(-c2cnc(C(F)(F)F)nc2)c1)[C@@H]1[C@@H]2[C@H](CN1S(=O)(=O)c1ccc(F)cc1)C2(F)F [Example 69, (1R,4S,5S)-6,6-difluoro-3-(4-fluorophenyl)sulfonyl-N-[[4-fluoro-3-[2-(trifluoromethyl)pyrimidin-5-yl]phenyl]methyl]-3-azabicyclo[3.1.0]hexane-4-carboxamide] | 45.7

The next lines start with the values.

IC50 [nM] | SMILES
7.34 | C[C@H]1[C@H](F)C[C@@H](C(=O)NCc2cc(-c3cnc(C(F)(F)F)nc3)ccc2F)N1S(=O)(=O)c1ccc(F)cc1 [Example 44, (2S,4R,5S)-4-fluoro-N-(2-fluoro-5-(2-(trifluoromethyl)pyrimidin-5-yl)benzyl)-1-(4-fluorophenylsulfonyl)-5-methylpyrrolidine-2-carboxamide]
8.05 | C[C@H]1[C@H](F)C[C@@H](C(=O)NCc2cc(F)cc(-c3cnc(C(F)(F)F)cn3)c2)N1S(=O)(=O)c1ccc(F)cc1 [Example 45, (2S,4R,5S)-4-fluoro-N-(3-fluoro-5-(5-(trifluoromethyl)pyrazin-2-yl)benzyl)-1-(4-fluorophenylsulfonyl)-5-methylpyrrolidine-2-carboxamide]
26.2 | C[C@H]1[C@H](F)C[C@@H](C(=O)NCc2cn(-c3cnc(C(F)(F)F)nc3)nc2C(F)(F)F)N1S(=O)(=O)c1ccc(F)cc1 [Example 46, (2S,4R,5S)-4-fluoro-1-(4-fluorophenylsulfonyl)-5-methyl-N-((3-(trifluoromethyl)-1-(2-(trifluoromethyl)pyrimidin-5-yl)-1H-pyrazol-4-yl)methyl)pyrrolidine-2-carboxamide]
36.7 | C[C@H]1[C@H](F)C[C@@H](C(=O)NCc2cc(-c3cnc(C(F)(F)F)nc3)c(C3CC3)cn2)N1S(=O)(=O)c1ccc(F)cc1 [Example 49, (2S,4R,5S)-N-[[5-cyclopropyl-4-[2-(trifluoromethyl)pyrimidin-5-yl]-2-pyridyl]methyl]-4-fluoro-1-(4-fluorophenyl)sulfonyl-5-methyl-pyrrolidine-2-carboxamide]
15.5 | C[C@H]1[C@H](F)C[C@@H](C(=O)NCc2cc(-c3cnc(C(F)(F)F)nc3)ncc2C#N)N1S(=O)(=O)c1ccc(F)cc1 [Example 51, (2S,4R,5S)-N-[[5-cyano-2-[2-(trifluoromethyl)pyrimidin-5-yl]-4-pyridyl]methyl]-4-fluoro-1-(4-fluorophenyl)sulfonyl-5-methyl-pyrrolidine-2-carboxamide]
8.9 | C[C@H]1[C@H](F)C[C@@H](C(=O)NCc2cc([C@H]3CC[C@@H](C(F)(F)F)CC3)c(F)cn2)N1S(=O)(=O)c1ccc(F)cc1 [Example 52, (2S,4R,5S)-4-fluoro-1-(4-fluorophenyl)sulfonyl-N-[[5-fluoro-4-[4-(trifluoromethyl)cyclohexyl]-2-pyridyl]methyl]-5-methyl-pyrrolidine-2-carboxamide]
6.38 | C[C@H]1[C@H](F)C[C@@H](C(=O)NCc2cc([C@H]3CC[C@@H](C(F)(F)F)CC3)ncc2F)N1S(=O)(=O)c1ccc(F)cc1 [Example 54, (2S,4R,5S)-4-fluoro-1-(4-fluorophenyl)sulfonyl-N-[[5-fluoro-2-[4-(trifluoromethyl)cyclohexyl]-4-pyridyl]methyl]-5-methyl-pyrrolidine-2-carboxamide]
5.89 | C[C@H]1[C@H](F)C[C@@H](C(=O)NCc2cc([C@H]3CC[C@H](C(F)(F)F)CC3)ncc2F)N1S(=O)(=O)c1ccc(F)cc1 [Example 55, (2S,4R,5S)-4-fluoro-1-(4-fluorophenyl)sulfonyl-N-[[5-fluoro-2-[4-(trifluoromethyl)cyclohexyl]-4-pyridyl]methyl]-5-methyl-pyrrolidine-2-carboxamide]
21.6 | O=C(NCc1cc(-c2cnc(C(F)(F)F)nc2)ncc1F)[C@@H]1CC[C@H](C(F)(F)F)N1S(=O)(=O)c1ccc(F)cc1 [Example 61, (2S,5R)-1-(4-fluorophenyl)sulfonyl-N-[[5-fluoro-2-[2-(trifluoromethyl)pyrimidin-5-yl]-4-pyridyl]methyl]-5-(trifluoromethyl)pyrrolidine-2-carboxamide]
6.16 | O=C(NCc1cc(-c2cnc(C(F)(F)F)nc2)ncc1Cl)[C@@H]1[C@H]2C[C@H]2CN1S(=O)(=O)c1ccc(F)cc1 [Example 63, (1S,2S,5R)-N-[[5-chloro-2-[2-(trifluoromethyl)pyrimidin-5-yl]-4-pyridyl]methyl]-3-(4-fluorophenyl)sulfonyl-3-azabicyclo[3.1.0]hexane-2-carboxamide]
44.5 | N#Cc1cc(F)c(-c2cnc(C(F)(F)F)nc2)cc1CNC(=O)[C@@H]1C[C@@H](F)CN1S(=O)(=O)c1ccc(F)cc1 [Example 64, (2S,4R)-N-[[2-cyano-4-fluoro-5-[2-(trifluoromethyl)pyrimidin-5-yl]phenyl]methyl]-4-fluoro-1-(4-fluorophenyl)sulfonyl-pyrrolidine-2-carboxamide]
